# Active and inactive are the calls of the source. No cut-off for these calls is given here.
# What was measured:
# PC-3 [1] = assay: Growth inhibition of human PC3 cells preincubated for 6 hrs followed compound washout measured after 24 hrs by XTT assay; assay type: functional
# MDA-MB-231 [2] = assay: Growth inhibition of human MDA-MB-231 cells preincubated for 6 hrs followed compound washout measured after 24 hrs by XTT assay; assay type: functional
# WM 266-4 [3] = assay: Growth inhibition of human WM266.4 cells preincubated for 6 hrs followed compound washout measured after 24 hrs by XTT assay; assay type: functional
# A 172 [4] = assay: Growth inhibition of human A172 cells preincubated for 6 hrs followed compound washout measured after 24 hrs by XTT assay; assay type: functional
# NCI-H1299 [5] = assay: Growth inhibition of human NCI-H1299 cells preincubated for 6 hrs followed compound washout measured after 24 hrs by XTT assay; assay type: functional
# PC-3 [6] = assay: Growth inhibition of human PC3 cells up to 25 uM measured after 24 hrs by XTT assay; assay type: functional, cell-based
# MDA-MB-231 [7] = assay: Growth inhibition of human MDA-MB-231 cells up to 25 uM measured after 24 hrs by XTT assay; assay type: functional, cell-based
# WM 266-4 [8] = assay: Growth inhibition of human WM266.4 cells up to 25 uM measured after 24 hrs by XTT assay; assay type: functional, cell-based
# A 172 [9] = assay: Growth inhibition of human A172 cells up to 25 uM measured after 24 hrs by XTT assay; assay type: functional, cell-based
# NCI-H1299 [10] = assay: Growth inhibition of human NCI-H1299 cells up to 25 uM measured after 24 hrs by XTT assay; assay type: functional, cell-based
# WM 266-4 [11] = assay: Growth inhibition of human WM266.4 cells up to 25 uM measured up to 96 hrs by XTT assay; assay type: functional, cell-based
# PC-3 [12] = assay: Growth inhibition of human PC3 cells up to 25 uM cotreated with colchicine measured after 24 hrs by XTT assay; assay type: functional, cell-based
# MDA-MB-231 [13] = assay: Growth inhibition of human MDA-MB-231 cells up to 25 uM cotreated with colchicine measured after 24 hrs by XTT assay; assay type: functional, cell-based
# WM 266-4 [14] = assay: Growth inhibition of human WM266.4 cells up to 25 uM cotreated with colchicine measured after 24 hrs by XTT assay; assay type: functional, cell-based
# A 172 [15] = assay: Growth inhibition of human A172 cells up to 25 uM cotreated with colchicine measured after 24 hrs by XTT assay; assay type: functional, cell-based
# NCI-H1299 [16] = assay: Growth inhibition of human NCI-H1299 cells up to 25 uM cotreated with colchicine measured after 24 hrs by XTT assay; assay type: functional, cell-based
# PC-3 [17] = assay: Growth inhibition of human PC3 cells up to 25 uM cotreated with camptothecin measured after 24 hrs by XTT assay; assay type: functional, cell-based
# MDA-MB-231 [18] = assay: Growth inhibition of human MDA-MB-231 cells up to 25 uM cotreated with camptothecin measured after 24 hrs by XTT assay; assay type: functional, cell-based
# WM 266-4 [19] = assay: Growth inhibition of human WM266.4 cells up to 25 uM cotreated with camptothecin measured after 24 hrs by XTT assay; assay type: functional, cell-based
# A 172 [20] = assay: Growth inhibition of human A172 cells up to 25 uM cotreated with camptothecin measured after 24 hrs by XTT assay; assay type: functional, cell-based
# NCI-H1299 [21] = assay: Growth inhibition of human NCI-H1299 cells up to 25 uM cotreated with camptothecin measured after 24 hrs by XTT assay; assay type: functional, cell-based
smiles,measurement,setting,value
Nc1ccn([C@@H]2O[C@H](COC(=O)CCCc3ccc(N(CCCl)CCCl)cc3)[C@@H](O)[C@@H]2O)c(=O)n1,growth inhibition (GI),PC-3 [1],inactive
same,growth inhibition (GI),MDA-MB-231 [2],inactive
same,growth inhibition (GI),WM 266-4 [3],inactive
same,growth inhibition (GI),A 172 [4],inactive
same,growth inhibition (GI),NCI-H1299 [5],inactive
CC[C@@]1(OC(=O)N[C@H]2CCc3cc(OC)c(OC)c(OC)c3-c3ccc(OC)c(=O)cc32)C(=O)OCc2c1cc1n(c2=O)Cc2cc3ccccc3nc2-1,growth inhibition (GI),PC-3 [6],inactive
same,growth inhibition (GI),MDA-MB-231 [7],inactive
same,growth inhibition (GI),WM 266-4 [8],inactive
same,growth inhibition (GI),A 172 [9],inactive
same,growth inhibition (GI),NCI-H1299 [10],inactive
same,growth inhibition (GI),WM 266-4 [11],inactive
CC[C@@]1(O)C(=O)OCc2c1cc1n(c2=O)Cc2cc3ccccc3nc2-1,growth inhibition (GI),PC-3 [12],Active
same,growth inhibition (GI),MDA-MB-231 [13],Active
same,growth inhibition (GI),WM 266-4 [14],Active
same,growth inhibition (GI),A 172 [15],Active
same,growth inhibition (GI),NCI-H1299 [16],Active
COc1cc2c(c(OC)c1OC)-c1ccc(OC)c(=O)cc1[C@@H](NC(C)=O)CC2,growth inhibition (GI),PC-3 [17],Active
same,growth inhibition (GI),MDA-MB-231 [18],Active
same,growth inhibition (GI),WM 266-4 [19],Active
same,growth inhibition (GI),A 172 [20],Active
same,growth inhibition (GI),NCI-H1299 [21],Active

# Reference: ChEMBL document CHEMBL4190267, “Discovery of potent molecular chimera (CM358) to treat human metastatic melanoma” (Eur J Med Chem, 2017)
